Experimental data as given in BindingDB's records for patent US11214574 (Prelude Therapeutics, Incorporated, 2022).
pIC50: −log10 of the molar value.

Target: Methylosome protein 50/Protein arginine N-methyltransferase 5 (Homo sapiens, UniProt O14744+Q9BQA1)
Assay: Biochemical Assay
Protocol: Compounds were solubilized and 3-fold diluted in 100% DMSO. […] Standard reactions were performed in a total volume of 30 μl in assay buffer, with 300 nM histone H4 based AcH4-23 (Anaspec: AS-65002) as substrate. To this was added the PRMT5/MEP50 complex diluted to provide a final assay concentration of 2.5 nM and the compounds were allowed to preincubate for 20 minutes at 37° C. The reaction was initiated by adding S-[3H-methyl]-adenosyl-L-methionine (PerkinElmer: NET155001MC) to final concentration of 1 μM. Following a 30 minutes incubation at 37° C., the reaction was stopped by adding 25 μL of 8M Guanidine HCl. Prepare streptavidin YSI SPA beads (Perkinelmer: RPNQ0012) at 0.3 mg/mL in assay buffer. To each reaction, add 150 μL of SPA beads suspension, and incubated while shaking at room temperature for 30 minutes. The plate was centrifuged at 100×g for 30 second before reading in a scintillation counter. IC50 values were determined by fitting the data to the standard 4 parameters with Hill Slope using GraphPad Prism software.

Methylosome protein 50/Protein arginine N-methyltransferase 5, sequence (O14744 whole entry): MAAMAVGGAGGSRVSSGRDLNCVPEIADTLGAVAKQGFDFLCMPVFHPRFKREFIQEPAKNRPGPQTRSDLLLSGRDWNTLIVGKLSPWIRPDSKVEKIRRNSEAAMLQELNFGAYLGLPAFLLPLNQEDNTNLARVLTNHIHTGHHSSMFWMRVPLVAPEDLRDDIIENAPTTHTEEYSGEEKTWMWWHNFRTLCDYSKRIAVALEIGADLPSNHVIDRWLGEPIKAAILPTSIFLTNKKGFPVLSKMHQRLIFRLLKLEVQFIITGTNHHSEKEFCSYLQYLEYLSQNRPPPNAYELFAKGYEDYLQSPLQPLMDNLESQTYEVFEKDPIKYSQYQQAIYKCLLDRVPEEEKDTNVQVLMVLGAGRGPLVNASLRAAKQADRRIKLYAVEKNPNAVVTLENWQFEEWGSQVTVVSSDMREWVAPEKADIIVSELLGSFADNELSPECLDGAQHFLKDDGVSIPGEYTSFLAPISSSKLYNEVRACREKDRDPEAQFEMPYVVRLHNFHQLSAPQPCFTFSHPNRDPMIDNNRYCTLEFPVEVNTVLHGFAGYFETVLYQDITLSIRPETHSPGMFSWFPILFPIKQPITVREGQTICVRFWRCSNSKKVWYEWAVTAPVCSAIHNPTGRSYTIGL
Methylosome protein 50/Protein arginine N-methyltransferase 5, sequence (Q9BQA1 whole entry): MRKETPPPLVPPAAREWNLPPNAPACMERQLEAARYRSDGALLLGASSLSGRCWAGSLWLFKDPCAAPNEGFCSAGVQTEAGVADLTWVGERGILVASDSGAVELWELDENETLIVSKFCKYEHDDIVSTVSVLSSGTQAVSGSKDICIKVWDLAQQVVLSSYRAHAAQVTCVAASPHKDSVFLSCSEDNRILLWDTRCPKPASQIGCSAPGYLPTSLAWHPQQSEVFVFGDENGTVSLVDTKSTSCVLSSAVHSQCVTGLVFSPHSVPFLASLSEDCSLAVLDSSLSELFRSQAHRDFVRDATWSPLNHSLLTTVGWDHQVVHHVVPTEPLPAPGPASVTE

**Q.** How did the pIC50 turn out when `Nc1ncnc2c1ccn2[C@@H]1O[C@H]([C@H]2OC(=O)c3cc(Cl)ccc32)[C@@H](O)[C@H]1O` [US11214574, Ex# 1B] was run?
**A.** 6.57
